Assay results: patent publication US4725581A, “New peptide compounds having a lactone or cycloamide structure” (ADIR et Compagnie, priority 1985, dated 1988)

Experiments:
Format in all cases: in vivo
[1] = system: cerebral AMPc; assay: Stimulation of the synthesis of cerebral AMPc; settings: mice OF1/IFFA-Credo, 10 mg/kg intraperitoneally, five minutes after injection
Procedure: The compounds to be tested are administered intraperitoneally at a dose of 10 mg/kg to mice of strain OF1 /IFFA-Credo.
Five minutes after injection, the animals are sacrificed by freezing and the AMPc present in the cerebral structures is measured by radio immunology according to the Amersham method (specific binding protein).

[2] = system: rats; assay: Increase in the latency of the onset of sleep induced by Pentobarbital; settings: 10 mg/kg i.p. before pentobarbital 40 mg/kg i.p.
Procedure: Pentobarbital, injected in rats at a dose of 40 mg/kg i.p., induces the onset of sleep.

[3] = system: mice; assay: Potentialisation of the toxicity of Yohimbine; settings: Yohimbine alone 35 mg/kg i.p.
Procedure: Yohimbine, injected to mice at a dose of 35 mg/kg i.p. causes the death of 10% to 30% treated animals. The compounds of the invention administered at a dose of 10 mg/kg i.p. 15 minutes before the injection of Yohimbine increase the rate of mortality (+80% with compounds of examples 5 and 7).

Row | Structure (SMILES) | increase of the intracerebral content of AMPc [1] | effect on the onset of sleep induced by pentobarbital (in words) [2] | death of treated animals [3]
1 | NC(=O)[C@@H]1CCCN1C(=O)[C@H](Cc1c[nH]cn1)NC(=O)[C@@H]1CCC(=O)N1 [TRH, pyroglutamylhistidyl-prolinamide] | 46% | inactive | –
2 | COC(=O)[C@@H]1[C@H]2C[C@H]3c4[nH]c5ccccc5c4CCN3C[C@@H]2CC[C@@H]1O [Yohimbine] | – | – | 10% to 30
